These results are taken from patent US7528159B2, “5-aryl pyridines as 11-beta inhibitors for the treatment of diabetes” (Hoffmann-La Roche Inc., priority 2004, dated 2009).

The target in this assay is T1, human 11beta-HSD1 (Homo sapiens, UniProt P28845).
T1 construct: made in house; host or cells: HEK293 cells (ATCC CRL-1573), transient transfection with lipofectamine; microsomal fraction used
The assay can be described thus: Microsome assay (cortisone to cortisol conversion, ELISA). The following applies: microsomes from HEK293 cells transiently expressing human 11beta-HSD1; 60 min, 37° C.; read-out: h 11-beta-HSD 1 IC50. The format is biochemical. The method, then: The cDNA encoding the human 11beta-HSD1 protein was cloned into the expression vector pcDNA3 (Stratagene). This construct (for details see Alex Odermatt et al.; J Biol. Chem., 1999, Vol. 274, Issue 40, 28762-28770) was used to transiently express the protein in HEK293 cells (ATCC number: CRL-1573, described in Graham, F. L., Smiley, J., Russell, W. C., Nairn, R.; (1977)) using lipofectamine. 48 h after transfection cells were washed twice with ice-cold PBS (Phosphate buffered Saline). To 1 volume of cell suspension in PBS 2 volumes of ice-cold lysis buffer (50 mM Tris; pH7.5; 1 mM EDTA; 100 mM NaCl) were added. The cells were lysed by Potter-homogenization (20 strokes). The resulting homogenate was sonicated with a tip sonicator (10% output; 2×30 sec.) and cleared by a low speed centrifugation (10 min×9000 g; 4° C.). The microsomal fraction was collected by a high speed centrifugation (60 min×110'000 g). […]
Microsomes isolated from HEK293 cells transiently expressing human 11beta-HSD1 (for details see above) were incubated in assay buffer (100 mM NaCl; 1 mM EDTA; 1 mM EGTA; 1 mM MgCl; 250 mM Sucrose; 20 mM Tris pH 7.4; Cortisone 50-200 nM and NADPH 1 mM) together with different concentrations of test substances. […] The amount of Cortisol produced in this assay was determined using a commercially available, ELISA-based Cortisol-detection kit (Distributed by Assay Design, Inc.). […]
Background: An ELISA detects its analyte on a solid surface through an enzyme-linked reagent.

T1 sequence (P28845 whole entry): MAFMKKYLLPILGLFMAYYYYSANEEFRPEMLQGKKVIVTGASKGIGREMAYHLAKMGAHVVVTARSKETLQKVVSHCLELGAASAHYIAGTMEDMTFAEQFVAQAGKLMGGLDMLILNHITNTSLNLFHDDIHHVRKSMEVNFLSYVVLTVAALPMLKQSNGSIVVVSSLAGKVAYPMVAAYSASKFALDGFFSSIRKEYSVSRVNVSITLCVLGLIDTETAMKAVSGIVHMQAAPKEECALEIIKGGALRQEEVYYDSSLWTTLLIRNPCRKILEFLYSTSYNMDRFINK

As usually defined, the IC50 is the point on the concentration scale where inhibition reaches its midpoint. As to `Cc1cc(F)ccc1-c1ccc(NS(=O)(=O)c2cccc(Cl)c2)nc1C` [Example 110, 3-Chloro-N-[5-(4-fluoro-2-methyl-phenyl)-6-methyl-pyridin-2-yl]-benzenesulfonamide], the IC50 stood at 12 nM.

On to `Cc1c(Cl)cccc1S(=O)(=O)Nc1ccc(-c2ccccc2Cl)cn1` [Example 2, 3-chloro-N-[5-(2-chloro-phenyl)-pyridin-2-yl]-2-methyl-benzenesulfonamide], for which the IC50 stood at 3 nM.
